This is an account of results in patent US20220071960A1, “CANCER TREATMENTS” (IMPERIAL COLLEGE INNOVATIONS LIMITED, priority 2018, published 2022).

Experiment [1] deals with SKNAS-ER-N-MYC cell line. Briefly: Flow cytometry (cell number, caspase3, cell cycle), SKNAS-ER-N-MYC. As to conditions: MYCN activated cells; FIG. 19. The format is cell-based, human. The text has this:
(§1) Single-cell suspensions were stained with the following monoclonal antibody: α-Active Caspase3 (BD Biosciences, C92-605, 550821, PE) and c-Myc (Abeam, Y69, ab190560). To analyse DNA content, we stained with FxCycle Violet (ThermoFisher Scientific, F10347). To assess proliferation, we used the Click-iT EdU Alexa Fluor 488 Flow Cytometry Assay Kit (ThermoFisher Scientific, C10420) according to manufacturer's instructions. Zombie NIR (Biolegend, 423105) was used to exclude dead cells. The cells were fixed in a 4% solution of PFA, permeabilised with Cytofix/Cytoperm (BD Bioscience, 554714) and washed in Perm/Wash Buffer (BD Bioscience, 554723). Samples were acquired on a MACSQuant VYB (Miltenyi Biotec) and analysed using the FlowJo software (v10.4, Tree star).
(§2) The experiment was performed in a 24 well plate and in technical duplicate. On day 0, 7,800 cells/well for the Shep and 15,000 cells/well for the SKNAS were seeded in 500 μL media. On day 1, the media was removed and 600 μL of media with 100 nM of Tamoxifen, to induce N-Myc, or ethanol as control. On day 2, the respective concentrations of NMT inhibitor were added. After 6 hours, 24 hours, 48 hours and 72 hours the cells were treated according to the general procedures; however, all the media was collected to not loose apoptotic cells, and Trypsin (ThermoFisher Scientific, 25200056) was used to harvest the cells. […]

Experiment [2] concerns SKNAS-ER-N-MYC cell line. The experiment is described as follows: CellTiter Blue metabolic viability, SKNAS-ER-N-MYC. As to conditions: 96 hours, with or without induction of MYCN. The format is cell-based, human. An excerpt:
(§3) In the experimental protocols described herein the SKNAS and Shep cell lines were genetically engineered to model differences between high grade neuroblastoma (which are usually marked by MYCN amplifications and with particular poor clinical prognosis) and low grade neuroblastoma. Accordingly, the SKNAS and/or Shep cell lines “with N-MYC induction” described herein will be understood to be cell lines treated with tamoxifen and represent aggressive, high grade type cancer cells. Conversely, the SKNAS and/or Shep cell lines “without N-MYC induction” described herein will be understood to be cell lines not treated with tamoxifen and represent less aggressive forms of cancer cells (Huang et al., Cold Spring Harb. Perspect. Med., 2013, 3(10), 1-22).
(§4) At the respective end points of the experiments 20 μL/well of the CellTiter Blue Assay (Promega, G8081) were added and the cells were incubated at 37° C. for 3 hours. The fluorescence was measured at 570 nm using an EnVision™ plate reader. As a positive control, the highest DMSO concentration was added to the cells (usually 0.4% DMSO); as a negative control, the cells were treated with 10 μg/mL Puromycin and 1 uM Staurosporine (Merck, P7255 and S4400, respectively).
The experiment was performed in a 48 well plate and in technical triplicate. On day 0, 5,500 cells/well were seeded in 200 μL media. […]
For orientation: Alamar Blue is a resazurin reagent that responds to reducing activity.

The test system of another experiment is P-493-6 cell line. The experiment is described as follows: CellTiter Blue metabolic viability, P-493-6. In kind it is cell-based. An excerpt:
The P-493-6 cell line is a non-transformed B cell line that can be genetically engineered to have either “low” levels of c-Myc, “medium” levels of c-Myc or “high” levels of c-Myc. The terms “low”, “medium” and “high” are descriptors commonly used in the art and will be readily understood to mean: • i) “low” levels of c-Myc-a level of MYC expression which represents non-proliferating normal cells (i.e. a level of MYC expression not sufficient to cause the cycling of the cells); • ii) “medium” levels of c-Myc-a level of MYC expression which represents normal proliferating cells; and • iii) ““high” levels of c-Myc-a level of MYC expression which represents enforced/deregulated expression of c-Myc, typically observed in cancerous cells. At the respective end points of the experiments 20 μL/well of the CellTiter Blue Assay (Promega, G8081) were added and the cells were incubated at 37° C. for 3 hours. The fluorescence was measured at 570 nm using an EnVisionTM plate reader. As a positive control, the highest DMSO concentration was added to the cells (usually 0.4% DMSO); as a negative control, the cells were treated with 10 μg/mL Puromycin and 1 uM Staurosporine (Merck, […] and […], respectively). The experiment was performed in a 96 well plate and in technical quadruplicate. […]

Experiment [3] relates to Shep-ER-N-MYC cell line. Briefly: CellTiter Blue metabolic viability, Shep-ER-N-MYC. The format is cell-based, human. As to conditions: 72 hours, with or without induction of MYCN.
Source text: as §3, §4
The experiment was performed in a 96 well plate and in technical quadruplicate. On day 0, 1,000 cells/well were seeded in 50 μL media. […]

The subject of experiment [4] is Shep-ER-N-MYC cell line. Briefly: Flow cytometry (cell number, caspase3, cell cycle), Shep-ER-N-MYC. In kind it is cell-based, human.
Source text: as §1, §2

For a further experiment, the target named is T1, human NMT1 (HsNMT1) (Homo sapiens, UniProt P30419).
T1 sequence (P30419 1-496): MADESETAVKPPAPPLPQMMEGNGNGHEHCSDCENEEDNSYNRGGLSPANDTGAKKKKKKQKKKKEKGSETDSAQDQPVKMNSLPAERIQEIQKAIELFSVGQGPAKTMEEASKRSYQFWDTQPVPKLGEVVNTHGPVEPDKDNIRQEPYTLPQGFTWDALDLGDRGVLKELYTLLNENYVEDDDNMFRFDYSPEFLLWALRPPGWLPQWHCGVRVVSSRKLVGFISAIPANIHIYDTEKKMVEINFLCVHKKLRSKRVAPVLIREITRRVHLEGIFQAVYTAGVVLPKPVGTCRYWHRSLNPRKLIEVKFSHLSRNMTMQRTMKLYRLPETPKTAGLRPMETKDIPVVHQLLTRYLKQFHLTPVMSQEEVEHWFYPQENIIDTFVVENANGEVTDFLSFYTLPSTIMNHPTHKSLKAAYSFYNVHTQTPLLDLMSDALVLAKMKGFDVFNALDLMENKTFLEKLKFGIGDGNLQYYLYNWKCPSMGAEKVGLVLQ
The experiment is described as follows: HsNMT1 fluorescence-based assay (CoA detection by CPM). In kind it is biochemical. The procedure: The IC50 values for human NMT1 (HsNMT1) of Compounds 5 and 7 were measured using a sensitive fluorescence-based assay based on detection of CoA by 7-diethylamino-3-(4-maleimido-phenyl)-4-methylcoumarin, as described in Goncalves, V., et al., Analytical Biochemistry, 2012, 421, 342-344 and Goncalves, V., et al., J. Med. Chem, 2012, 55, 3578.

The subject of a further experiment is MRC5 cells. Briefly: Metabolic activity assay (MTS assay). The format is cell-based. As to conditions: Homo sapiens, MRC5 fibroblast cells, 72 h. The procedure:
Compounds 5 and 7 were also tested for activity in an in vitro metabolic activity assay using the human cell line MRC5. Compounds having activity in inhibiting metabolic activity in the assay are expected to be useful as agents for preventing and/or treating cancer, by virtue of being inhibitors of human NMT1 and/or NMT2.
MRC5 cells (cell type: fibroblast cells) were grown in DMEM media (supplemented with 10% FBS) and were seeded in a 96-well plate, 24 h prior to treatment. Cell suspensions were prepared by adjusting the cell density to the appropriate concentration (as stated in the Table 1 below) and 50 μL of the cell suspension was transferred to wells B-G in columns 2-11 of a 96-well plate. […]
After 72 h, 20 μL MTS reagent (Promega, prepared according to the supplier protocol) was added to each well of the 96-well plate. The plate was incubated at 37° C. for 2 h and the absorbance per well was measured at 490 nm with an EnVision plate reader. The average absorbance value of the negative control (Puromycin-treated cells) was subtracted from each value and the metabolic activity was calculated as a percentage relative to the positive control (DMSO-treated cells). EC50 values were calculated using GraphPad.

In the case of `Cc1nn(C)c(C)c1CCOc1c(-c2ccc3c(c2)c(CN(C)C)nn3C)ccc(F)c1F` [Compound 2, 1-(5-(3,4-difluoro-2-(2-(1,3,5-trimethyl-1H-pyrazol-4-yl)ethoxy)phenyl)-1-methyl-1H-indazol-3-yl)-N,N-dimethylmethanamine], the cell cycling entry with SKNAS-ER-N-MYC cell line [1] is “do not reduce their cycling”; in the experiment with Shep-ER-N-MYC cell line [4] (MYCN activated cells, FIG. 17), “do not reduce their cycling”; in the experiment on Shep-ER-N-MYC cell line [4] (cell line without activated MYCN), “stops cycling at 48 hours”. Besides, the “cell death with high versus low levels of MYCN” value with SKNAS-ER-N-MYC cell line [2] and in the experiment on Shep-ER-N-MYC cell line [3] was “increased cell death more rapidly at lower concentrations” throughout. Further, the “effect on cell viability” value in the experiment on P-493-6 cell line (10 nM, 72 hours, Myc high cell lines) is “measurable effects on cell viability”. Moreover, the “cell death depending on c-MYC level” value in the experiment on P-493-6 cell line (48 hours and 72 hours, c-MYC high, medium, low) is “clear MYC-dependent increase in cell death”.
`Cc1c(CCOc2cc(Cl)ccc2-c2ccc3ncc(CCN)n3c2)c(C(=O)N(C)C)nn1C` [Compound 5, 4-(2-{2-[3-(2-aminoethyl)imidazo[1,2-a]pyridin-6-yl]-5-chlorophenoxy}ethyl)-N,N,1,5-tetramethyl-1H-pyrazole-3-carboxamide]: the IC50 (commonly the concentration needed to halve the response being measured) against human NMT1 (HsNMT1) came out at 1.5 nM. Besides, a half-maximal effect in the experiment on MRC5 cells (EC50) was put at 13 nM.
`CNC(=O)c1nn(C)c(C)c1CCOc1cc(Cl)ccc1-c1ccc2ncc(CCN)n2c1` [Compound 7, 4-(2-{2-[3-(2-aminoethyl)imidazo[1,2-a]pyridin-6-yl]-5-chlorophenoxy}ethyl)-N,1,5-trimethyl-1H-pyrazole-3-carboxamide] returned an IC50 at human NMT1 (HsNMT1) of 0.4 nM. Further, a half-maximal effect in the experiment on MRC5 cells (EC50) was put at 37 nM.
